Measured values published in ChEMBL document CHEMBL1156528, “Acetyl-lysine analog peptides as mechanistic probes of protein deacetylases” (J Biol Chem, 2007).

Target: NAD-dependent protein deacetylase HST2 (Saccharomyces cerevisiae S288c) (UniProt P53686)
Assay: Ratio of Vmax to Km for Saccharomyces cerevisiae Hst2

Sequence of NAD-dependent protein deacetylase HST2 (Saccharomyces cerevisiae S288c) (P53686 whole entry): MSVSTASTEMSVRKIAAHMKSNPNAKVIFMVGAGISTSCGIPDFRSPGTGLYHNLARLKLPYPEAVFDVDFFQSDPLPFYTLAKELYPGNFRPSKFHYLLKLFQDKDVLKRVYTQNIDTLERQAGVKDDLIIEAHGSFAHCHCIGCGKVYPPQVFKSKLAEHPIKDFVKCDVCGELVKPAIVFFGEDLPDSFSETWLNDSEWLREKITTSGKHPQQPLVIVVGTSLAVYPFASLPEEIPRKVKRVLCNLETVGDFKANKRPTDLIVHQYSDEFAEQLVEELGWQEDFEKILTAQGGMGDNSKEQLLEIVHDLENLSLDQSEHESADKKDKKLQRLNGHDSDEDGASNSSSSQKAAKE

- Ratio: 7.4 ×10³ /M/s
Compound: C[C@H](NC(=O)[C@H](CCCCNC(N)=O)NC(=O)CNC(=O)CNC(=O)[C@@H](NC(=O)[C@H](CO)NC(=O)[C@@H](N)CCCCN)[C@@H](C)O)C(=O)N1CCC[C@H]1C(=O)N[C@@H](CCCNC(=N)N)C(=O)N[C@@H](CCCCN)C(=O)N[C@@H](CCC(N)=O)C(=O)O
